Source: ChEMBL document CHEMBL2074491, “Transport of drugs across the hepatic sinusoidal membrane: sinusoidal drug influx and efflux in the liver” (Semin Liver Dis, 2000)

Assays:
[1] = target: T1, Solute carrier organic anion transporter family member 1A1 (Rattus norvegicus, UniProt P46720); assay: TP_TRANSPORTER: transport activity; assay type: functional
T1 sequence (P46720 whole entry): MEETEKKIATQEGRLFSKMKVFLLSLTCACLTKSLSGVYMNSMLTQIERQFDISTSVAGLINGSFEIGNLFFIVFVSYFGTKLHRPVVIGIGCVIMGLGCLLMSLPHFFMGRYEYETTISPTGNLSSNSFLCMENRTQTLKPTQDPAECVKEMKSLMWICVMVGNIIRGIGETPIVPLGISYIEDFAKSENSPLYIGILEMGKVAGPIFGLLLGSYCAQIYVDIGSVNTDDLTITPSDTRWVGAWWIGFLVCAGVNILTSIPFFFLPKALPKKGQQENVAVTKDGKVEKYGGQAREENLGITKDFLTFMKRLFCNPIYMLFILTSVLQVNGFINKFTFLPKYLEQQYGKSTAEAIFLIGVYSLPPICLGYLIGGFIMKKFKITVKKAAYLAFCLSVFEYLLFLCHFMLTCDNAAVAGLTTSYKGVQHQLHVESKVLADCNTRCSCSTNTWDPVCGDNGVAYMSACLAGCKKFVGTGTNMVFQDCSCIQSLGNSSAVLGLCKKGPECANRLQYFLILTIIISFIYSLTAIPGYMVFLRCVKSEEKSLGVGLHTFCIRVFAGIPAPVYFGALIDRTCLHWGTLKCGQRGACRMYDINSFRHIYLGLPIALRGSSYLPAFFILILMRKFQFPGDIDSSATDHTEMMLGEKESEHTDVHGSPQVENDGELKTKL

[2] = system: Rattus norvegicus; assay: TP_TRANSPORTER: Northern blot in vivo, kidney of SD rat; assay type: functional, organism-based; settings: Sprague Dawley

Activity [1]	Structure (SMILES)	Activity [2]
is not a substrate [-]	CCCCC[C@H](O)/C=C/[C@@H]1[C@@H](C/C=C\CCCC(=O)O)[C@@H](O)C[C@H]1O [DINOPROST]	–
–	C[C@]12CC[C@@H]3c4ccc(O)cc4CC[C@H]3[C@@H]1CC[C@@H]2O	is not a substrate [-]
